Test results: patent publication US12077503B2, “Substituted cyclic amides and their use as herbicides” (FMC CORPORATION, priority 2015, dated 2024)

Tests used:
Type in all cases: in vivo
[1] = test system: redroot pigweed (Amaranthus retroflexus); test: Test G Post-Emergence Protocol; settings: Amaranthus retroflexus, post-emergence, 312 h; for pest or weed control at 15.625 g/ha: 15.625 g ai/ha, evaluated after 13 days (100=total damage to plant; 0=no damage to plant), read-out: Pigweed, Redroot damage rating; for pest or weed control at 62.5 g/ha: 62.5 g ai/ha, read-out: Pigweed, Redroot damage rating (100=total damage to plant; 0=no damage to plant); for pest or weed control at 62.5 g/ha / pest or weed control at 250 g/ha: evaluated after 13 days; for pest or weed control at 250 g/ha: 250 g ai/ha, read-out: damage to plant, Pigweed, Redroot (100=total damage to plant; 0=no damage to plant)
Method in brief: (§1)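 Seedlings grown 8 days in soil in a glasshouse (24/16 °C day/night, 14 h light, 65% humidity) were sprayed post-emergence with compound in acetone/water 50:50 plus 0.5% Tween 20 at 15.625, 62.5 or 250 g/ha. Damage was scored after 13 days on a 0–100 scale (100 = total damage).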

[2] = test system: barnyardgrass (Echinochloa crus-galli); test: Test G Post-Emergence Protocol; settings: Echinochloa crus-galli, post-emergence, 312 h; for pest or weed control at 15.625 g/ha: 15.625 g ai/ha, evaluated after 13 days (100=total damage to plant; 0=no damage to plant), read-out: Barnyardgrass damage rating; for pest or weed control at 62.5 g/ha: 62.5 g ai/ha, read-out: Barnyardgrass damage rating (100=total damage to plant; 0=no damage to plant); for pest or weed control at 62.5 g/ha / pest or weed control at 250 g/ha: evaluated after 13 days; for pest or weed control at 250 g/ha: 250 g ai/ha, read-out: damage to plant, Barnyardgrass (100=total damage to plant; 0=no damage to plant)
Method in brief: as §1

corn (Zea mays) [3] = test: Test G Post-Emergence Protocol; settings: Zea mays, post-emergence, 312 h; for plant injury at 15.625 g/ha: 15.625 g ai/ha, evaluated after 13 days (100=total damage to plant; 0=no damage to plant), read-out: Corn damage rating; for plant injury at 62.5 g/ha: 62.5 g ai/ha, read-out: Corn damage rating (100=total damage to plant; 0=no damage to plant); for plant injury at 62.5 g/ha / plant injury at 250 g/ha: evaluated after 13 days; for plant injury at 250 g/ha: 250 g ai/ha, read-out: damage to plant, Corn (100=total damage to plant; 0=no damage to plant)
Method in brief: as §1

[4] = test system: giant foxtail (Setaria faberi); test: Test G Post-Emergence Protocol; settings: Setaria faberi, post-emergence, 312 h; for pest or weed control at 15.625 g/ha: 15.625 g ai/ha, evaluated after 13 days (100=total damage to plant; 0=no damage to plant), read-out: Foxtail, Giant damage rating; for pest or weed control at 62.5 g/ha: 62.5 g ai/ha, read-out: Foxtail, Giant damage rating (100=total damage to plant; 0=no damage to plant); for pest or weed control at 62.5 g/ha / pest or weed control at 250 g/ha: evaluated after 13 days; for pest or weed control at 250 g/ha: 250 g ai/ha, read-out: damage to plant, Foxtail, Giant (100=total damage to plant; 0=no damage to plant)
Method in brief: as §1

[5] = test system: velvetleaf (Abutilon theophrasti); test: Test G Post-Emergence Protocol; settings: Abutilon theophrasti, post-emergence, 312 h; for pest or weed control at 15.625 g/ha: 15.625 g ai/ha, evaluated after 13 days (100=total damage to plant; 0=no damage to plant), read-out: Velvetleaf damage rating; for pest or weed control at 62.5 g/ha: 62.5 g ai/ha, read-out: Velvetleaf damage rating (100=total damage to plant; 0=no damage to plant); for pest or weed control at 62.5 g/ha / pest or weed control at 250 g/ha: evaluated after 13 days; for pest or weed control at 250 g/ha: 250 g ai/ha, read-out: damage to plant, Velvetleaf (100=total damage to plant; 0=no damage to plant)
Method in brief: as §1

[6] = test system: ivy-leaved morning glory (Ipomoea hederacea); test: Test G Post-Emergence Protocol; settings: Ipomoea, post-emergence, 312 h; for pest or weed control at 15.625 g/ha: 15.625 g ai/ha, evaluated after 13 days (100=total damage to plant; 0=no damage to plant), read-out: Morningglory, Ivy-leaved damage rating; for pest or weed control at 62.5 g/ha: 62.5 g ai/ha, read-out: Morningglory, Ivy-leaved damage rating (100=total damage to plant; 0=no damage to plant); for pest or weed control at 62.5 g/ha / pest or weed control at 250 g/ha: evaluated after 13 days; for pest or weed control at 250 g/ha: 250 g ai/ha, read-out: damage to plant, Morningglory, Ivy-leaved (100=total damage to plant; 0=no damage to plant)
Method in brief: as §1

[7] = test system: redroot pigweed (Amaranthus retroflexus); test: Test G Pre-Emergence Protocol; settings: Amaranthus retroflexus, pre-emergence, 312 h, evaluated after 13 days; for pest or weed control at 15.625 g/ha: 15.625 g ai/ha; for pest or weed control at 15.625 g/ha / pest or weed control at 250 g/ha: read-out: Pigweed, Redroot damage rating (100=total damage to plant; 0=no damage to plant); for pest or weed control at 62.5 g/ha: 62.5 g ai/ha, 100=total damage to plant, 0=no damage to plant, read-out: plant damage rating, Pigweed, Redroot; for pest or weed control at 250 g/ha: 250 g ai/ha
Method in brief: (§2)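 Herbicidal effect was rated 13 days post-application on a scale where 100 equals total damage. Spraying took place the day after sowing, using 15.625, 62.5 or 250 g/ha of compound in a 50:50 acetone/water solution with 0.5% Tween 20.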

[8] = test system: barnyardgrass (Echinochloa crus-galli); test: Test G Pre-Emergence Protocol; settings: Echinochloa crus-galli, pre-emergence, 312 h, evaluated after 13 days; for pest or weed control at 15.625 g/ha: 15.625 g ai/ha, read-out: Barnyard grass damage rating (100=total damage to plant; 0=no damage to plant); for pest or weed control at 62.5 g/ha: 62.5 g ai/ha, 100=total damage to plant, 0=no damage to plant, read-out: plant damage rating, Barnyardgrass; for pest or weed control at 250 g/ha: 250 g ai/ha, read-out: Barnyardgrass damage rating (100=total damage to plant; 0=no damage to plant)
Method in brief: as §2

corn (Zea mays) [9] = test: Test G Pre-Emergence Protocol; settings: Zea mays, pre-emergence, 312 h, evaluated after 13 days; for plant injury at 15.625 g/ha: 15.625 g ai/ha; for plant injury at 15.625 g/ha / plant injury at 250 g/ha: read-out: Corn damage rating (100=total damage to plant; 0=no damage to plant); for plant injury at 62.5 g/ha: 62.5 g ai/ha, 100=total damage to plant, 0=no damage to plant, read-out: plant damage rating, Corn; for plant injury at 250 g/ha: 250 g ai/ha
Method in brief: as §2

[10] = test system: giant foxtail (Setaria faberi); test: Test G Pre-Emergence Protocol; settings: Setaria faberi, pre-emergence, 312 h, evaluated after 13 days; for pest or weed control at 15.625 g/ha: 15.625 g ai/ha; for pest or weed control at 15.625 g/ha / pest or weed control at 250 g/ha: read-out: Foxtail, Giant damage rating (100=total damage to plant; 0=no damage to plant); for pest or weed control at 62.5 g/ha: 62.5 g ai/ha, 100=total damage to plant, 0=no damage to plant, read-out: plant damage rating, Foxtail, Giant; for pest or weed control at 250 g/ha: 250 g ai/ha
Method in brief: as §2

[11] = test system: velvetleaf (Abutilon theophrasti); test: Test G Pre-Emergence Protocol; settings: Abutilon theophrasti, pre-emergence, 312 h, evaluated after 13 days; for pest or weed control at 15.625 g/ha: 15.625 g ai/ha; for pest or weed control at 15.625 g/ha / pest or weed control at 250 g/ha: read-out: Velvetleaf damage rating (100=total damage to plant; 0=no damage to plant); for pest or weed control at 62.5 g/ha: 62.5 g ai/ha, 100=total damage to plant, 0=no damage to plant, read-out: plant damage rating, Velvetleaf; for pest or weed control at 250 g/ha: 250 g ai/ha
Method in brief: as §2

[12] = test system: ivy-leaved morning glory (Ipomoea hederacea); test: Test G Pre-Emergence Protocol; settings: Ipomoea, pre-emergence, 312 h, evaluated after 13 days; for pest or weed control at 15.625 g/ha: 15.625 g ai/ha, read-out: Morning-glory, Ivy-leaved damage rating (100=total damage to plant; 0=no damage to plant); for pest or weed control at 62.5 g/ha: 62.5 g ai/ha, 100=total damage to plant, 0=no damage to plant, read-out: plant damage rating, Morningglory, Ivy-leaved; for pest or weed control at 250 g/ha: 250 g ai/ha, read-out: Morningglory, Ivy-leaved damage rating (100=total damage to plant; 0=no damage to plant)
Method in brief: as §2

| Compound | pest or weed control at 15.625 g/ha [1] | pest or weed control at 62.5 g/ha [1] | pest or weed control at 250 g/ha [1] | pest or weed control at 15.625 g/ha [2] | pest or weed control at 62.5 g/ha [2] | pest or weed control at 250 g/ha [2] | plant injury at 15.625 g/ha (corn (Zea mays) [3]) | plant injury at 62.5 g/ha (corn (Zea mays) [3]) | plant injury at 250 g/ha (corn (Zea mays) [3]) | pest or weed control at 15.625 g/ha [4] | pest or weed control at 62.5 g/ha [4] | pest or weed control at 250 g/ha [4] | pest or weed control at 15.625 g/ha [5] | pest or weed control at 62.5 g/ha [5] | pest or weed control at 250 g/ha [5] | pest or weed control at 15.625 g/ha [6] | pest or weed control at 62.5 g/ha [6] | pest or weed control at 250 g/ha [6] | pest or weed control at 15.625 g/ha [7] | pest or weed control at 62.5 g/ha [7] | other results |
| --- | --- | --- | --- | --- | --- | --- | --- | --- | --- | --- | --- | --- | --- | --- | --- | --- | --- | --- | --- | --- | --- |
| CN1C[C@@H](c2ccc(C(F)(F)F)cc2)[C@H](C(=O)Nc2ccsc2)C1=O (racemic) [Compound 1611] | 0% | 0% | 0% | 0% | 0% | 0% | 0% | 0% | 0% | 0% | 0% | 0% | 0% | 0% | 0% | 0% | 0% | 0% | 0% | 0% | pest or weed control at 250 g/ha [7]: 0%; pest or weed control at 15.625 g/ha [8]: 0%; pest or weed control at 62.5 g/ha [8]: 0%; pest or weed control at 250 g/ha [8]: 0%; plant injury at 15.625 g/ha (corn (Zea mays) [9]): 0%; plant injury at 62.5 g/ha (corn (Zea mays) [9]): 0%; plant injury at 250 g/ha (corn (Zea mays) [9]): 0%; pest or weed control at 15.625 g/ha [10]: 0%; pest or weed control at 62.5 g/ha [10]: 0%; pest or weed control at 250 g/ha [10]: 0%; pest or weed control at 15.625 g/ha [11]: 0%; pest or weed control at 62.5 g/ha [11]: 0%; pest or weed control at 250 g/ha [11]: 0%; pest or weed control at 15.625 g/ha [12]: 0%; pest or weed control at 62.5 g/ha [12]: 0%; pest or weed control at 250 g/ha [12]: 0% |
| Cc1nc(NC(=O)[C@@H]2C(=O)N(C)C[C@H]2c2ccc(C(F)(F)F)cc2)ccc1F (racemic) [Compound 1613] | 0% | 50% | 60% | 0% | 20% | 60% | 0% | 0% | 0% | 20% | 70% | 80% | 0% | 20% | 30% | 0% | 0% | 0% | 0% | 0% | pest or weed control at 250 g/ha [7]: 10%; pest or weed control at 15.625 g/ha [8]: 0%; pest or weed control at 62.5 g/ha [8]: 0%; pest or weed control at 250 g/ha [8]: 70%; plant injury at 15.625 g/ha (corn (Zea mays) [9]): 0%; plant injury at 62.5 g/ha (corn (Zea mays) [9]): 0%; plant injury at 250 g/ha (corn (Zea mays) [9]): 0%; pest or weed control at 15.625 g/ha [10]: 0%; pest or weed control at 62.5 g/ha [10]: 50%; pest or weed control at 250 g/ha [10]: 90%; pest or weed control at 15.625 g/ha [11]: 0%; pest or weed control at 62.5 g/ha [11]: 0%; pest or weed control at 250 g/ha [11]: 10%; pest or weed control at 15.625 g/ha [12]: 0%; pest or weed control at 62.5 g/ha [12]: 0%; pest or weed control at 250 g/ha [12]: 0% |
| CN1C[C@H](c2ccc(C(F)(F)F)cc2)[C@@H](C(=O)Nc2cnccc2O)C1=O (racemic) [Compound 1466] | 10% | 30% | 80% | 0% | 0% | 20% | 0% | 10% | 20% | 0% | 10% | 30% | 0% | 0% | 0% | 0% | 10% | 10% | 0% | 0% | pest or weed control at 250 g/ha [7]: 0%; pest or weed control at 15.625 g/ha [8]: 0%; pest or weed control at 62.5 g/ha [8]: 0%; pest or weed control at 250 g/ha [8]: 0%; plant injury at 15.625 g/ha (corn (Zea mays) [9]): 0%; plant injury at 62.5 g/ha (corn (Zea mays) [9]): 0%; plant injury at 250 g/ha (corn (Zea mays) [9]): 0%; pest or weed control at 15.625 g/ha [10]: 0%; pest or weed control at 62.5 g/ha [10]: 0%; pest or weed control at 250 g/ha [10]: 0%; pest or weed control at 15.625 g/ha [11]: 0%; pest or weed control at 62.5 g/ha [11]: 0%; pest or weed control at 250 g/ha [11]: 0%; pest or weed control at 15.625 g/ha [12]: 0%; pest or weed control at 62.5 g/ha [12]: 0%; pest or weed control at 250 g/ha [12]: 0% |
